From patent US8987320B2, “Solid salt forms of a pyrrole substituted 2-indolinone” (Zoetis LLC, priority 2005, dated 2015)
“And” between values parts separate entries of the source, which are not always exact repeats. Equal entries are not always repeated. “Also recorded” adds a separate entry of the source. Where two headings read alike, the source gives them in different places.

What was measured:
[1] = tested on: KIT; assay: KIT phosphorylation in canine mast cell tumor biopsies before and after a single dose (immunoprecipitation/Western blot); type: in vivo
Description: (§1) Study Design. This study was a proof of target modulation study in dogs with recurrent or metastatic grade MCTs. Patients received a single oral dose of Compound I phosphate at 3.25 mg/kg. Using a 6-mm punch biopsy instrument, samples were obtained from the tumor before Compound I phosphate administration and 8 hours (h) after treatment. When possible, multiple biopsies were taken. Each sample was flash frozen in liquid nitrogen and stored at −70° centigrade (C) before analysis. Blood samples for analysis of plasma levels of Compound I phosphate were obtained at the same time as tumor biopsies (see below).
Analysis of KIT and ERK Phosphorylation. Tumor biopsies were frozen in liquid nitrogen and later pulverized using a liquid nitrogen-cooled cryomortar and pestle, then stored at −70° C. until used. For the analysis of KIT, pulverized tumors were homogenized, lysed, and immunoprecipitated from 1 mg of starting tumor lysate, as described previously (Abrams, T. J., Lee, L. B., Murray, L. J., Pryer, N. K., Cherrington, J. M. SU11248 inhibits KIT and platelet-derived growth factor receptor beta in preclinical models of human small cell lung cancer. Mol. Cancer Ther. 2: 471-478, 2003; which is incorporated by reference in its entirety) using an agarose-conjugated antibody to KIT (SC-1493AC; Santa Cruz Biotechnology, Santa Cruz, Calif.). […] The amount of phosphorylated KIT in each sample was determined by Western blot using an antibody to phosphotyrosine 719 of murine KIT (3391; Cell Signaling Technology, Beverly, Mass.), which corresponds to tyrosine 721 of canine KIT and is an autophosphorylation site and, thus, a surrogate for KIT kinase activity. […] Target modulation was scored by eye by three observers blinded to the JM status and plasma concentration. Reduction of ≧50% in phospho-protein signal relative to total protein signal in the biopsy sample taken post-treatment compared with the pretreatment biopsy was scored as positive for target modulation, whereas a reduction of <50% was scored negative.

[2] = Compound I phosphate plasma levels in dogs with mast cell tumors (LC/MS/MS); type: in vivo, canine; settings: for concentration at 8 h / Cmax at 8 h: dog, plasma, oral; for Cmax at 8 h: dogs
Description: as §1
Compound I Phosphate Plasma Levels. Blood samples were drawn from the jugular vein and placed into a red-top serum collection vacuum glass tube. Specimens were kept at room temperature, allowed to clot, centrifuged at 1500 rpm at 4° C. for 10 minutes, transferred to cryovials, and plasma frozen at −70° C. pending analysis. Briefly, plasma samples (20 μl) or Compound I phosphate standards in canine plasma were mixed with methanol (200 μl) containing DL-propranolol hydrochloride (internal standard) in a 96-well polypropylene plate (Orochem Technology, Westmont, Ill.). The plate was mixed by vortex for 1 min, and the samples were centrifuged for 10 min at 4000 rpm. Ten microliters of the supernatant were injected onto the LC/MS/MS system, in which separation occurred on a BataBasic C-18 (5 μm, 100×4.6 mm) reverse-phase high-performance liquid chromatography column (Keystone Scientific, Foster City, Calif.). The amount of Compound I phosphate and the internal standard in each canine plasma sample were quantified based on standard curves generated using known amounts of compound ranging from 0.2 to 500 ng/ml.

[3] = tested on: recurrent mast cell tumors; assay: Multicenter, placebo-controlled, double blind, randomized study in dogs with recurrent mast cell tumors; type: in vivo
Description: Purpose. The effectiveness of Compound I phosphate oral tablets for the treatment of mast cell tumors in client-owned animals that had recurrent measurable disease after surgery was evaluated in a masked, negative controlled study. The study evaluated every-other-day dosing of Compound I phosphate at 3.25 mg free base equivalents (FBE)/kg body weight on disease response using modified (RECIST) criteria of response. The presence or absence of c-kit mutation in mast cell tumors was evaluated as a covariate in this study. For decision-making purposes, the duration of the study was 6 weeks.
One-hundred-fifty-three (153) dogs were randomized in a ratio of 4:3 into one of two treatment groups: T01 (Placebo in which n=65) and T02 (Compound I phosphate in which n=88). Ten veterinary oncology practices in the United States were selected and enrolled cases. For enrollment, dogs had to have recurrent mast cell tumor (at least one target lesion had to have a minimum longest diameter of 20 mm)±regional lymph node involvement. A maximum of three target lesions (measurable mast cell tumors) and all non-target lesions (all remaining lesions, measurable or un-measurable) were identified at baseline by two evaluators. Efficacy was based on the objective response (complete response or partial response) at the week 6 visit where the mean of the two evaluators sum of the longest diameter of target lesions (Mean Sum LD) was compared to the Baseline Mean Sum LD for calculation of percent reduction or increase. Assessment of non-target lesions was subjective. A complete response (CR) was defined as the disappearance of all target and non-target lesions and the appearance of no new lesions; a partial response (PR) was defined as at least a 30% decrease in the Mean Sum LD of target lesions compared to the Baseline Mean Sum LD and non-progression of non-target lesions and appearance of no new lesions. Tissue samples from the tumor and distant normal skin were collected prior to randomization and submitted for the assessment of c-kit mutation status.

[4] = Dynamic moisture sorption gravimetry (DMSG) of salts of Compound I; type: physicochemical
Description: Dynamic Moisture Sorption Gravimetry (DMSG).
DMSG isotherm was collected on a temperature controlled atmospheric microbalance. Approximately 10 mg samples were placed in the sample pan of the balance. The humidity was sequentially varied from room relative humidity (RH) to 0% RH and was then increased to 90% RH followed by a decrease of RH to 0% again in 3% RH steps. The mass was then measured every two minutes. The RH was stepped to the next target value when change of the sample mass was less than 0.5 μg in 10 min. The Visual Basic program dmsgscn2.exe was used to control the data collection and export the information to an Excel spreadsheet.

[5] = tested on: ERK1/2; assay: ERK1/2 phosphorylation in canine mast cell tumor biopsies before and after a single dose (Western blot); type: in vivo; settings: single oral dose 3.25 mg/kg
Description: as §1
Analysis of KIT and ERK Phosphorylation. […] The amount of phosphorylated KIT in each sample was determined by Western blot using an antibody to phosphotyrosine 719 of murine KIT (3391; Cell Signaling Technology, Beverly, Mass.), which corresponds to tyrosine 721 of canine KIT and is an autophosphorylation site and, thus, a surrogate for KIT kinase activity. […] Target modulation was scored by eye by three observers blinded to the JM status and plasma concentration. Reduction of ≧50% in phospho-protein signal relative to total protein signal in the biopsy sample taken post-treatment compared with the pretreatment biopsy was scored as positive for target modulation, whereas a reduction of <50% was scored negative.

For `Cc1[nH]c(/C=C2\C(=O)Nc3ccc(F)cc32)c(C)c1C(=O)NCCN1CCCC1` [Compound I phosphate], the “evaluable MCT biopsy pairs with detectable inhibition of KIT activation” value ([1]; Eight of 11, single oral dose) was 73%, the “P-KIT reduction postdose (Phospho-Tyr721 KIT)” value ([1]; individual dogs, single oral dose 3.25 mg/kg, biopsy 8 h after treatment vs pretreatment) was “Yes (Reduction of ≧50% in phospho-protein signal relative to total protein signal in the biopsy sample taken post-treatment compared with the pretreatment biopsy was scored as positive for target modulation); also recorded: No (a reduction of <50% was scored negative)” and the “evaluable dogs scored positive for KIT target modulation (≧50% reduction in phosphorylated KIT relative to total KIT)” value ([1]; single oral dose 3.25 mg/kg) was “Eight”. It also gave a concentration at 8 h ([2]; 3.25 mg/kg, single dose at 3.25 mg/kg, 8 h, read-out: average plasma concentration for dogs that did not score for KIT target modulation) of 137 ± 36 ng/mL, a concentration at 8 h ([2]; 3.25 mg/kg, single dose at 3.25 mg/kg, 8 h, read-out: average plasma concentration for dogs with evidence of KIT target modulation) of 79.2 ± 41 ng/mL and a Cmax at 8 h ([2]; 3.25 mg/kg, single dose at 3.25 mg/kg, read-out: plasma concentration at 8 h (approximately Cmax), average) of 105 ± 9 ng/mL. The Cmax at 8 h ([2]; 3.25 mg/kg, single dose at 3.25 mg/kg, read-out: plasma concentration at 8 h (approximately Cmax), range over dogs) was 33.2 to 186 ng/mL, the “Plasma Compound I phosphate postdose” value ([2]; individual dogs, single oral dose 3.25 mg/kg, 8 h after dosing, 3.25 mg/kg) was 0.3 ng/mL and 83.5 ng/mL and 98.0 ng/mL and 116.0 ng/mL and 121.0 ng/mL and 186.0 ng/mL and 103.0 ng/mL and 111.0 ng/mL and 158.0 ng/mL and 65.3 ng/mL and 95.4 ng/mL and 119.0 ng/mL and 81.0 ng/mL and 33.2 ng/mL and the “dogs with plasma levels considered to be in the therapeutic range” value ([2]; single dose at 3.25 mg/kg, 8 h) was “Twelve”. For the same compound, the “animals that experienced progressive disease” value ([3]; 3.25 mg FBE/kg every other day, 6 weeks, 29/86) was 33.7%, the “objective response rate (complete or partial response)” value ([3]; 3.25 mg FBE/kg every other day, oral tablets, week 6, 33/86) was 38.3% and the “objective response, dogs positive for the c-kit mutation” value ([3]; T02 group, 12/20) was 60%. The “objective response, dogs negative for the c-kit mutation” value ([3]; T02 group, 21/64) was 32.8%, the “% water at 80% RH” value ([4]; 80% RH) was about 1% and the “water at 80 percent humidity” value ([4]; 80 percent relative humidity) was “about 1%”. The “P-ERK½ reduction postdose (Phospho-Thr202/Tyr204 ERK½)” value ([5]; individual dogs, biopsy 8 h after treatment vs pretreatment) was “Yes (Reduction of ≧50% in phospho-protein signal relative to total protein signal in the biopsy sample taken post-treatment compared with the pretreatment biopsy was scored as positive for target modulation); also recorded: No (a reduction of <50% was scored negative)” and the “evaluable tumors showing a reduction in the ratio of phospho-ERK1/2 to total ERK1/2” value [5] was 7 of 11 evaluable.
